Assay results published in patent publication US20110002944A1, “Compositions and Methods to Promote Neural Cell Growth” (The Johns Hopkins University, priority 2006, published 2011).

What was measured:
[1] = test system: axonal growth cones of P5 rat hippocampal neurons; assay: Growth cone turning assay in a MAG gradient, P5 hippocampal neurons; assay type: cell-based
Procedure: To examine the functional role of β1-integrin in transducing MAG signaling in neuronal growth cones, growth cone turning assays were performed using rat hippocampal neurons. Growth cone turning assays are well-known and described in the art, for example by Song et al., 1998; Xiang et al., 2002; see also Experimental Procedures.
(§1) Hippocampal neurons were isolated from embryonic and postnatal rats, or wild-type and NgR knockout mice (Zheng et al., 2005) as previously described (Song et al., 2002a; Song et al., 2002b). Similarly, cerebellar neurons were isolated from P5 rat cerebellum (Xiang et al., 2002). They were cultured on poly-L-lysine coated plates or coverslips as previously described (Song et al., 2002a; Song et al., 2002b). For biochemical analysis, embryonic day 18 (E18) neurons were treated with the agent AraC to eliminate dividing astrocytes and used at 5 days after plating as previously described (Song et al., 2002a; Song et al., 2002b). For growth cone turning assay, neurons were used between 2-3 days after plating. […]
Microscopic gradients of recombinant MAG (150 μg/ml in the pipette) and OMgp (5 μg/ml in the pipette) were produced as previously described (Lohof et al., 1992; Song et al., 1998; Xiang et al., 2002). […] Statistical significance was assessed using ANOVA and accepted if p<0.01. […]

FAK = assay: MAG-induced FAK tyrosine phosphorylation in hippocampal neurons (IP anti-FAK, immunoblot); assay type: cell-based, rat; settings: echistatin 100 nM
Procedure: The question was next asked how β1-integrin signaling transduces MAG-induced neuronal responses. Focal adhesion kinase (FAK) is a major mediator of integrin-dependent signaling in many contexts, including cell migration and axon guidance (Nakamoto et al., 2004; Nikolopoulos and Gianotti, 2005; Xie and Tsai, 2004). […] MAG-induced FAK phosphorylation was abolished in the presence of echistatin (100 nM) or Ha2/5 ([…]) (FIG. 6B). […] The specific FAK tyrosine residues that become phosphorylated upon MAG stimulation in hippocampal neurons were next examined. […] Similar β1-integrin-dependent FAK phosphorylation of these tyrosine residues was also found in embryonic cortical neurons treated with MAG (data not shown).
as §1, with “2002b).” for “2002b). For growth cone turning assay, neurons were used between 2-3 days after plating.”

β1-integrin = target: T1, β1-integrin (Rattus norvegicus, UniProt P49134); assay: Co-immunoprecipitation of MAG-Fc and β1-integrin in primary hippocampal neurons; assay type: binding; settings: echistatin 100 nM; primary hippocampal cultures treated with MAG-Fc
T1 construct: endogenous in cells; host or cells: primary hippocampal neurons (E18, 5 days after plating)
Procedure: To determine whether β1-integrin interacts with myelin associated glycoprotein (MAG), cultured primary hippocampal neurons were treated with recombinant MAG consisting of the MAG extracellular domain fused to human Fc (MAG-Fc; see Experimental Procedures), a fusion protein previously shown to potently regulate neurite outgrowth and induce growth cone turning responses (Domeniconi et al., 2002; Henley et al., 2004; Liu et al., 2002; McKerracher et al., 1994; Shim et al., 2005; Song et al., 1998).
as §1

[2] = test system: axonal growth cones of rat P5 hippocampal neurons; assay: Growth cone turning assay in an OMgp gradient, P5 hippocampal neurons; assay type: cell-based; settings: for growth cone turning response to a gradient of the protein: 5 μg/ml in the pipette
Description: Three major myelin-associated inhibitory factors, Nogo-66, MAG and OMgp, are known to bind the common NgR protein, and may utilize the same signal transduction pathway to inhibit axonal extension (Domeniconi et al., 2002; Fournier et al., 2001; Liu et al., 2002; Wang et al., 2002b). Therefore, whether β1-integrin also mediates growth cone responses to other myelin-associated inhibitors was next considered. […] Thus, β1-integrin appears to specifically mediate acute axonal growth cone turning induced by MAG, but not by OMgp.
Hippocampal neurons were isolated from embryonic and postnatal rats, or wild-type and NgR knockout mice (Zheng et al., 2005) as previously described (Song et al., 2002a; Song et al., 2002b). Similarly, cerebellar neurons were isolated from P5 rat cerebellum (Xiang et al., 2002). They were cultured on poly-L-lysine coated plates or coverslips as previously described (Song et al., 2002a; Song et al., 2002b). For biochemical analysis, embryonic day 18 (E18) neurons were treated with the agent AraC to eliminate dividing astrocytes and used at 5 days after plating as previously described (Song et al., 2002a; Song et al., 2002b). For growth cone turning assay, neurons were used between 2-3 days after plating. PI-PLC (1 or 2 units/ml) (Wang et al., 2002b), Ha2/5 (1 μg/ml) or echistatin (100 nM) (Gan et al., 1988) were added for 30 mins prior to and were present during the biochemical analysis or the growth cone turning assay.
Microscopic gradients of recombinant MAG (150 μg/ml in the pipette) and OMgp (5 μg/ml in the pipette) were produced as previously described (Lohof et al., 1992; Song et al., 1998; Xiang et al., 2002). Axons were identified as the longest neurite in these cultures at the stage 2-3 of hippocampal neurons as previously described (Dotti et al., 1988). Growth cone assays were carried out at room temperature for 30 min. […] Statistical significance was assessed using ANOVA and accepted if p<0.01.

T1 sequence (P49134 21-799): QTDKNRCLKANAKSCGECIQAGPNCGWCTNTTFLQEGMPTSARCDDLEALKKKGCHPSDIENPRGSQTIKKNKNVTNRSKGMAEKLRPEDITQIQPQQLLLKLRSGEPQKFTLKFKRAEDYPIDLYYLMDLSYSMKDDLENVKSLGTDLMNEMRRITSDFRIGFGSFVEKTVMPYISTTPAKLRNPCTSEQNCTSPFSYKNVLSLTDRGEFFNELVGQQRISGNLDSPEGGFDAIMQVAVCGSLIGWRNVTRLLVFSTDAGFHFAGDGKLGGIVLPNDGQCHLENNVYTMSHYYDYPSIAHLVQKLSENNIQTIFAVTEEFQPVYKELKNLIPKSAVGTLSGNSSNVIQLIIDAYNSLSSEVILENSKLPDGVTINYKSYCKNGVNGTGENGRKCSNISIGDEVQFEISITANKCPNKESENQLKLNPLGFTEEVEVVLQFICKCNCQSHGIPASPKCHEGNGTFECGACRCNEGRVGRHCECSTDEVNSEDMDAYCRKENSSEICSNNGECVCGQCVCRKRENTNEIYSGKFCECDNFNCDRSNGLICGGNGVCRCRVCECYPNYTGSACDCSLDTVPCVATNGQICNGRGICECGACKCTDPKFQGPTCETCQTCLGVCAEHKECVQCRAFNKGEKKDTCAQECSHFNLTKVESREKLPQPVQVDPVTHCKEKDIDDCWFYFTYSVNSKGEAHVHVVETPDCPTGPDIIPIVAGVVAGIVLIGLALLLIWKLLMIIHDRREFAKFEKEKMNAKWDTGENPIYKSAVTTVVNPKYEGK

## echistatin
[1]; 100 nM echistatin, MAG 150 μg/ml in the pipette
  effect on MAG-induced growth cone repulsion: completely abolished
FAK
  effect on MAG-induced FAK phosphorylation: abolished
β1-integrin
  association between MAG and β1-integrin (co-immunoprecipitation): attenuated
[2]; echistatin 100 nM, OMgp 5 μg/ml in the pipette
  effect on OMgp-induced growth cone repulsion: still exhibited significant repulsion

B1: OMgp: recombinant oligodendrocyte-myelin glycoprotein (protein, UniProt P23515 25-417, looked up)
Oligodendrocyte-myelin …: ICPLQCICTERHRHVDCSGRNLSTLPSGLQENIIHLNLSYNHFTDLHNQLTQYTNLRTLDISNNRLESLPAHLPRSLWNMSAANNNIKLLDKSDTAYQWNLKYLDVSKNMLEKVVLIKNTLRSLEVLNLSSNKLWTVPTNMPSKLHIVDLSNNSLTQILPGTLINLTNLTHLYLHNNKFTFIPDQSFDQLFQLQEITLYNNRWSCDHKQNITYLLKWMMETKAHVIGTPCSTQISSLKEHNMYPTPSGFTSSLFTVSGMQTVDTINSLSVVTQPKVTKIPKQYRTKETTFGATLSKDTTFTSTDKAFVPYPEDTSTETINSHEAAAATLTIHLQDGMVTNTSLTSSTKSSPTPMTLSITSGMPNNFSEMPQQSTTLNLWREETTTNVKTPLPS
[2]
  growth cone turning response to a gradient of the protein: significant repulsive turning responses

B2: heat-inactivated Omgp: heat-inactivated OMgp (protein, UniProt P23515 25-417, looked up)
Oligodendrocyte-myelin …: B1 Oligodendrocyte-myelin …
modifications: heat-inactivated
[2]
  growth cone turning response to a gradient of the protein: not

B3: MAG-HI: heat-inactivated MAG (protein, UniProt P20916 20-626, looked up)
Myelin-associated glycoprotein: GHWGAWMPSSISAFEGTCVSIPCRFDFPDELRPAVVHGVWYFNSPYPKNYPPVVFKSRTQVVHESFQGRSRLLGDLGLRNCTLLLSNVSPELGGKYYFRGDLGGYNQYTFSEHSVLDIVNTPNIVVPPEVVAGTEVEVSCMVPDNCPELRPELSWLGHEGLGEPAVLGRLREDEGTWVQVSLLHFVPTREANGHRLGCQASFPNTTLQFEGYASMDVKYPPVIVEMNSSVEAIEGSHVSLLCGADSNPPPLLTWMRDGTVLREAVAESLLLELEEVTPAEDGVYACLAENAYGQDNRTVGLSVMYAPWKPTVNGTMVAVEGETVSILCSTQSNPDPILTIFKEKQILSTVIYESELQLELPAVSPEDDGEYWCVAENQYGQRATAFNLSVEFAPVLLLESHCAAARDTVQCLCVVKSNPEPSVAFELPSRNVTVNESEREFVYSERSGLVLTSILTLRGQAQAPPRVICTARNLYGAKSLELPFQGAHRLMWAKIGPVGAVVAFAILIAIVCYITQTRRKKNVTESPSFSAGDNPPVLFSSDFRISGAPEKYESERRLGSERRLLGLRGEPPELDLSYSHSDLGKRPTKDSYTLTEELAEYAEIRVK
modifications: heat-inactivated
[1]; 150 μg/ml in the pipette, 30 min
  growth cone turning response to a gradient of the protein: no bias in the direction of axonal extension
